Experimental findings from ChEMBL document CHEMBL1155000, “Discovery of a novel series of Notch-sparing gamma-secretase inhibitors” (Bioorg Med Chem Lett, 2008) are described below.

For orientation: EC50 means the concentration needed to bring the measured effect to its halfway point.

Assay [1] is described as follows: Inhibition of gamma-secretase expressed in CHO cells expressing wild type human recombinant APP assessed as reduction in amyloid beta40 production.
Assay [2] in a line: Selectivity ratio of EC50 for gamma-secretase to EC50 for mouse notch.
The nature of assay [3]: (§1) Inhibition of mouse notch expressed in CHO cells assessed as transactivation of soluble alkaline phosphatase reporter system. Type of assay: cell-based.
The subject of the next assay is CHO. Described as §1. Type of assay: cell-based.

With `CC[C@H](C)[C@@H](CO)NCc1ccc(Cl)cc1`, the EC50 in assay [1] was over 100 µM.

`CC[C@H](C)[C@@H](CO)NS(=O)(=O)c1ccc([N+](=O)[O-])cc1`: the EC50 in assay [1] amounted to 20.9 µM.

On to `C[C@H](c1ccc(F)cc1CCCC(=O)O)N(c1cc(F)ccc1F)S(=O)(=O)c1ccc(Cl)cc1`, for which the EC50 in assay [1] amounted to 0.007 µM. Moreover, the Ratio EC50 in assay [2] is 15.

Take `CC[C@H](C)[C@@H](CO)NS(=O)(=O)c1ccc(S(C)(=O)=O)cc1`: the EC50 in assay [1] was over 100 µM.

On to `CC[C@@H](C)[C@@H](CO)NS(=O)(=O)c1ccc(Cl)cc1`, for which the concentration giving a half-maximal response (EC50) in assay [1] is 0.758 µM.

Consider `CC[C@H](C)[C@@H](CO)NS(=O)(=O)c1cc(Cl)ccc1Cl`, for which, in assay [1], the EC50 was 54.8 µM.

With `CC[C@H](C)[C@@H](CO)NC(=O)c1ccc(Cl)cc1`, the EC50 in assay [1] was over 100 µM.

As for `CCC(CC)[C@@H](CO)NS(=O)(=O)c1ccc(Cl)cc1`, the EC50 in assay [3] was 4.09 µM; in assay [1] it was 0.294 µM. In assay [2], the Ratio EC50 was found to be 13.9.

`CC[C@H](C)[C@@H](CO)NS(=O)(=O)c1ccc(Cl)c(F)c1`: the EC50 in assay [1] was 7.84 µM.

On to `CC[C@H](C)[C@@H](CO)NS(=O)(=O)c1ccccc1`, for which the EC50 in assay [1] came to 4.15 µM.

In the case of `CC[C@H](C)[C@@H](CO)NS(=O)(=O)c1ccc(OC(F)(F)F)cc1`, in assay [1], the EC50 stood at 23.5 µM.

Take `CC[C@H](C)[C@@H](CO)NS(=O)(=O)c1ccc(C(F)(F)F)cc1`: the EC50 in assay [1] was found to be 13.1 µM.

Regarding `CC[C@H](C)[C@@H](CO)NS(=O)(=O)c1ccc(C(C)=O)cc1`, the EC50 in assay [1] turned out to be 6.02 µM.

Regarding `CC[C@@H](CO)NS(=O)(=O)c1ccc(Cl)cc1`, in assay [1], the EC50 is over 100 µM.

`CC[C@H](C)[C@@H](CO)NS(=O)(=O)c1cc(Cl)cc(Cl)c1`: the EC50 in assay [1] amounted to 23.5 µM.

For the compound `CC[C@H](C)[C@H](NS(=O)(=O)c1ccc(Cl)cc1)C(C)(C)O`, the EC50 in assay [1] is over 100 µM.

Regarding `CC[C@H](C)[C@@H](CO)NS(=O)(=O)c1cccc(Cl)c1Cl`, the concentration for a half-maximal effect (EC50) in assay [1] is 4.27 µM.

As to `CC[C@H](C)[C@@H](CO)NS(=O)(=O)c1ccc(C#N)cc1`, the EC50 in assay [1] is over 100 µM.

Consider `CC[C@H](C)[C@@H](CO)NS(=O)(=O)c1ccc(C)cc1`, for which the 50% effective concentration (EC50) in assay [1] stood at 14.3 µM.

For the compound `CCOC(=O)N1CCC(c2ccccc2)(S(=O)(=O)c2ccc(Cl)cc2)CC1`, the EC50 worked out at 0.746 µM in assay [3] and 12.2 µM in assay [1]. Besides, the Ratio EC50 in assay [2] stood at 8.8.

Turning to `CC[C@H](C)[C@@H](CO)NS(=O)(=O)c1ccc(Cl)c(Cl)c1`, in assay [1], the 50% effective concentration (EC50) stood at 37 µM.

Take `CC[C@H](C)[C@@H](CO)NS(=O)(=O)c1ccccc1Cl`: the EC50 in assay [1] was 56.6 µM.

For `C[C@@H](CO)NS(=O)(=O)c1ccc(Cl)cc1`, the EC50 in assay [1] is over 100 µM.

Consider `CC[C@H](C)[C@@H](CO)NS(=O)(=O)Nc1ccc(Cl)cc1`, for which the EC50 in assay [1] was over 30 µM.

Regarding `CCCNC(=O)OC[C@@H](C)N(c1cc(Cl)ccc1CO)S(=O)(=O)c1ccc(Cl)cc1`, in assay [1], the EC50 was found to be 0.085 µM.

Take `CC[C@H](C)[C@@H](CO)NC(=O)Cc1ccc(Cl)cc1`: in assay [1], the EC50 is over 100 µM.

For `CC[C@H](C)[C@@H](CO)NS(=O)(=O)c1ccc(F)cc1`, in assay [1], the EC50 came to 4.24 µM.

As to `CC(C)C[C@@H](CO)NS(=O)(=O)c1ccc(Cl)cc1`, in assay [1], the EC50 was 15.3 µM.

`CC[C@H](C)[C@@H](CO)NS(=O)(=O)c1ccc(Br)cc1`: the values for the EC50 in assay [3] and in assay [1] were 20 µM and 2.21 µM, respectively.

Regarding `C[C@H](NC(=O)[C@@H](O)c1cc(F)cc(F)c1)C(=O)N[C@@H]1C(=O)N(C)N=Cc2ccccc21`, in the assay with CHO, the Ratio EC50 came out at 0.5. Further, the EC50 in assay [1] stood at 0.0003 µM.

Take `CC(C)(C)[C@@H](CO)NS(=O)(=O)c1ccc(Cl)cc1`: the EC50 in assay [1] came to 29.1 µM.

Regarding `CC(C)[C@H](O)C(=O)N[C@@H](C)C(=O)N[C@@H]1C(=O)N(C)CCc2ccccc21`, the EC50 in assay [3] was 0.063 µM; in assay [1], 0.028 µM.

Take `CC(C)[C@@H](CO)NS(=O)(=O)c1ccc(Cl)cc1`: the EC50 in assay [1] turned out to be 4.58 µM.

Regarding `CC[C@H](C)[C@@H](CO)NC(=O)Nc1ccc(Cl)cc1`, the 50% effective concentration (EC50) in assay [1] amounted to 47.3 µM.

With `O=S(=O)(N[C@H](CO)c1ccccc1)c1ccc(Cl)cc1`, the EC50 in assay [1] was 68.8 µM.

Consider `CC[C@H](C)[C@H](NS(=O)(=O)c1ccc(Cl)cc1)C(C)O` (some centres undefined), for which the EC50 in assay [1] turned out to be 49.3 µM.

Take `O=S(=O)(N[C@H](CO)C1CCCCC1)c1ccc(Cl)cc1`: the EC50 in assay [1] was 1.12 µM.

Turning to `CC[C@H](C)[C@@H](CO)NS(=O)(=O)c1cccc(Cl)c1`, in assay [1], the EC50 came to 18.3 µM.

`CC[C@H](C)[C@H](NS(=O)(=O)c1ccc(Cl)cc1)C(=O)O`: the EC50 in assay [1] is over 100 µM.

Regarding `CC[C@H](C)[C@@H](CO)NS(=O)(=O)c1ccc(Cl)cc1`, the 50% effective concentration (EC50) in assay [3] worked out at 20 µM; in assay [1], 5.45 µM.
